# Reference: ChEMBL document CHEMBL6127051, “Hydrazinecarboxamides: Comprehensive review of their anticancer, anticonvulsive, anti-inflammatory, enzyme inhibition, antioxidant and other activities” (Eur J Med Chem, 2024)
# Assays:
# NCI-H460 = assay: Antiproliferative activity against human NCI-H460 cells by MTT assay; format: functional, cell-based
# MCF7 [1] = assay: Antiproliferative activity against human MCF7 cells by MTT assay; format: functional, cell-based
# MCF7 [2] = assay: Anticancer activity against human MCF7 cells assessed as reduction in cell growth measured after 3 days by MTT assay; format: functional, cell-based; details: MCF7, 72 h
# [3] = Antioxidant activity assessed as DPPH radical scavenging activity at 10 ug/ml; format: functional; details: dose 10.0 µg/ml
# MCF7 [4] = assay: Antiproliferative activity against human MCF7 cells assessed as reduction in cell viability incubated for 72 hrs by MTT assay; format: functional, cell-based; details: MCF7, 72 h
# A549 [5] = assay: Antiproliferative activity against human A549 cells assessed as reduction in cell viability by MTT assay; format: functional, cell-based
# A549 [6] = assay: Antiproliferative activity against human A549 cells; format: functional, cell-based
# PC-3 [7] = assay: Cytotoxicity against human PC-3 cells assessed as inhibition of cell growth; format: functional, cell-based
# MCF7 [8] = assay: Cytotoxicity against human MCF7 cells assessed as inhibition of cell growth; format: functional, cell-based
# PC-3 [9] = assay: Cytotoxicity against human PC-3 cells; format: functional, cell-based
# [10] = Cytotoxicity against human HEK cells; format: toxicity, cell-based
# MCF7 [11] = assay: Cytotoxicity against human MCF7 cells assessed as reduction in cell growth; format: functional, cell-based
# HepG2 [12] = assay: Antiproliferative activity against human HepG2 cells assessed as reduction in cell viability incubated for 72 hrs by MTT assay; format: functional, cell-based; details: HepG2, 72 h
# [13] = Inhibition of Escherichia coli beta-glucuronidase
# A549 [14] = assay: Antiproliferative activity against human A549 cells assessed as reduction in cell viability incubated for 72 hrs by MTT assay; format: functional, cell-based; details: A549, 72 h
# NCI-H23 = assay: Antiproliferative activity against human NCI-H23 cells assessed as reduction in cell viability incubated for 72 hrs by MTT assay; format: functional, cell-based; details: NCI-H23, 72 h
# WI-38 = assay: Antiproliferative activity against human WI-38 cells assessed as reduction in cell viability; format: functional, cell-based
# Mus musculus [15] = assay: Anticonvulsant activity in ip dosed MES induced Kunming mouse seizure model; format: functional
# Mus musculus [16] = assay: Anticonvulsant activity in po dosed scPTZ induced mouse model measured after 4 hrs; format: functional
# Mus musculus [17] = assay: Anticonvulsant activity in ip dosed scPTZ induced Kunming mouse seizure model; format: functional
# [18] = Antiproliferative activity against human MRC5 cells assessed as reduction in cell growth; format: toxicity, cell-based
# PANC-1 = assay: Induction of apoptosis in human PANC-1 cells assessed as apoptotic cells at 2 uM incubated for 24 hrs by flow cytometric analysis relative to control; format: functional
# HepG2 [19] = assay: Cytotoxicity against human HepG2 cells assessed as reduction in cell viability by MTT assay; format: functional, cell-based
# HCT-116 = assay: Cytotoxicity against human HCT-116 cells assessed as reduction in cell viability by MTT assay; format: functional, cell-based
# MCF7 [20] = assay: Cytotoxicity against human MCF7 cells assessed as reduction in cell viability by MTT assay; format: functional, cell-based
# HeLa = assay: Cytotoxicity against human HeLa cells assessed as reduction in cell viability by MTT assay; format: functional, cell-based
# Cholinesterase = Cholinesterase (Equus caballus, UniProt P81908); assay: Inhibition of equine serum BChE using butyrylthiocholine iodide as substrate measured after 15 mins by Ellman's method
# Sequence of Cholinesterase (P81908 whole entry): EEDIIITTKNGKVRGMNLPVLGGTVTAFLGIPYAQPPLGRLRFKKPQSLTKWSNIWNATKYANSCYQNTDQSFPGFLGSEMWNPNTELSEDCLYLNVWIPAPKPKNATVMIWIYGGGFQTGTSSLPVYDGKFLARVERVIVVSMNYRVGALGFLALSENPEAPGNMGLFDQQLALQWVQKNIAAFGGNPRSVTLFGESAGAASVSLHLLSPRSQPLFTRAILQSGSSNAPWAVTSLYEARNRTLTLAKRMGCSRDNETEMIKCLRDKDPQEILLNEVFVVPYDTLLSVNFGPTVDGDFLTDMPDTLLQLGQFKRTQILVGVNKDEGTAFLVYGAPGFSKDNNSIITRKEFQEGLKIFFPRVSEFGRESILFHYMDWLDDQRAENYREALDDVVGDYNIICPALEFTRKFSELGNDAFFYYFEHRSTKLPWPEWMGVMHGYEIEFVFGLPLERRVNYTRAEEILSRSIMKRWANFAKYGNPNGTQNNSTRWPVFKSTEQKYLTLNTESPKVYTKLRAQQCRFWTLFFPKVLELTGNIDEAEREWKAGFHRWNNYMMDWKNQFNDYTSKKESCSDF
# HepG2 [21] = assay: Antiproliferative activity against human HepG2 cells assessed as reduction in cell viability measured for 24 hrs by MTT assay; details: HepG2, 24 h
# MCF7 [22] = assay: Antiproliferative activity against human MCF7 cells assessed as reduction in cell viability measured for 72 hrs by MTT assay; format: functional, cell-based; details: MCF7, 72 h
# MCF7 [23] = assay: Anticancer activity against human MCF7 cells assessed as reduction in cell growth incubated for 24 hrs by MTT assay; format: functional, cell-based; details: MCF7, 24 h
structure (smiles),measurement,setting,value
Cc1nc(-c2cccnc2)ccc1C(=O)NNC(=O)Nc1ccc(F)cc1F,IC50,NCI-H460,8.89 µM
same,IC50,MCF7 [1],8.89 µM
COc1cc(NC(C)CCCNC(=O)NNC(=O)/C=C/c2ccccc2)c2ncccc2c1 (configuration not stated),IC50,MCF7 [2],0.03 µM
CC1=N/C(=C\c2ccc([N+](=O)[O-])cc2)C(=O)N1NC(=O)N1c2ccccc2C=Cc2ccccc21,Activity,[3],73.9%
COc1ccc(/C=C/C(=O)NNC(=O)NCCCC(C)Nc2cc(OC)cc3cccnc23)cc1 (configuration not stated),IC50,MCF7 [2],0.03 µM
COc1cc(NC(C)CCCNC(=O)NNC(=O)NC(=O)c2ccccc2)c2ncccc2c1 (configuration not stated),IC50,MCF7 [4],1 µM
same,IC50,A549 [5],4 µM
same,IC50,A549 [6],1.5 µM
CCc1nc2cc(Cl)c(Cl)cc2n1CC(=O)NNC(=O)Nc1ccccc1,IC50,PC-3 [7],25.2 mg/L
same,IC50,MCF7 [8],25.2 mg/L
same,IC50,PC-3 [9],25.2 mg/L
same,IC50,[10],127 mg/L
O=C(NNC(=O)n1nnc2ccccc21)NC(=O)c1ccccc1,IC50,MCF7 [11],79 µM
Cc1ccc(S(=O)(=O)NC(=O)NNC(=O)Cn2c(C(C)C)nc3ccccc32)cc1,IC50,HepG2 [12],80.7 µM
COc1ccc(NC(=O)NNC(=O)CCc2ccccc2OC)cc1,IC50,[13],15.5 µM
O=C(NNC(=O)n1nnc2ccccc21)NC1CCCCC1,IC50,MCF7 [11],79 µM
COc1cc(/C=C2\N=C(C)N(NC(=O)N3c4ccccc4C=Cc4ccccc43)C2=O)ccc1O,Activity,[3],73.9%
COc1cc(NC(C)CCCNC(=O)NNC(=O)/C=C/c2cc(OC)c(OC)c(OC)c2)c2ncccc2c1 (configuration not stated),IC50,MCF7 [2],0.03 µM
COc1cccc(NC(=O)NNC(=O)c2oc3ccccc3c2CN2CCOCC2)c1,IC50,A549 [14],1.5 µM
same,IC50,NCI-H23,1.49 µM
same,IC50,WI-38,12.9 µM
COc1cc(C(=O)NN2C(=O)C(=O)N(Cc3ccccc3)C2=O)cc2c1OCCO2,ED50,Mus musculus [15],13.7 mg/kg
COc1cc(NC(C)CCCNC(=O)NNC(=O)/C=C/c2cccc(C(F)(F)F)c2)c2ncccc2c1 (configuration not stated),IC50,MCF7 [2],0.03 µM
CC1(C)CC12NC(=O)N(Nc1ccc(F)cc1)C2=O (configuration not stated),ED50,Mus musculus [16],61.8 mg/kg
COc1cc(NC(C)CCCNC(=O)NNC(=O)/C=C/c2ccc(Cl)cc2)c2ncccc2c1 (configuration not stated),IC50,MCF7 [2],0.03 µM
CCOC(=O)C1(NC(=O)NNc2ccc(F)c(Cl)c2)CC1(C)C (configuration not stated),ED50,Mus musculus [17],58.1 mg/kg
COc1cc(NC(C)CCCNC(=O)NNC(=O)NCCc2ccccc2)c2ncccc2c1 (configuration not stated),IC50,MCF7 [4],1 µM
same,IC50,A549 [5],4 µM
same,IC50,A549 [6],1.5 µM
O=C(NNC(=O)n1nnc2ccccc21)NC(c1ccccc1)c1ccccc1,IC50,MCF7 [11],79 µM
COc1ccc(NC(=O)NNC(=O)c2oc3ccccc3c2CN2CCN(c3ccccc3)CC2)cn1,IC50,[18],74 µM
same,Activity,PANC-1,29.93%
Cc1c(C(=O)NNC(=O)Nc2ccc([N+](=O)[O-])cc2)nnn1Cc1nc2ccccc2[nH]1,IC50,HepG2 [19],25 µM
same,IC50,HCT-116,32.8 µM
same,IC50,MCF7 [20],16.6 µM
same,IC50,HeLa,19.1 µM
CNC(=O)NNC(=O)c1ccc(Cl)cc1,IC50,Cholinesterase,22 µM
CC1=N/C(=C\c2ccc(Cl)cc2)C(=O)N1NC(=O)N1c2ccccc2C=Cc2ccccc21,Activity,[3],73.9%
COc1cc(NC(C)CCCNC(=O)NNC(=O)NC2CCCC2)c2ncccc2c1 (configuration not stated),IC50,MCF7 [4],1 µM
same,IC50,A549 [5],4 µM
same,IC50,A549 [6],1.5 µM
COc1cc(C(=O)NN2C(=O)C(=O)N(C(C)C)C2=O)cc2c1OCCO2,ED50,Mus musculus [15],7.6 mg/kg
CNC(=O)c1cc(Oc2ccc(NC(=O)Nc3ccc(Cl)c(C(F)(F)F)c3)cc2)ccn1 [SORAFENIB],IC50,HepG2 [21],16.9 µM
O=C(NNC(=O)n1nnc2ccccc21)NC1CCCC1,IC50,MCF7 [11],79 µM
COc1ccc(/C=C2\N=C(C)N(NC(=O)N3c4ccccc4C=Cc4ccccc43)C2=O)cc1,Activity,[3],73.9%
O=C(NNC(=O)c1cc2ccccc2[nH]1)NC1CCCCC1,IC50,MCF7 [22],1.2 µM
NNC(=O)Nc1nc2ccccc2o1,IC50,MCF7 [23],218 µM
